Laboratory results: ChEMBL document CHEMBL3227920, “Synthesis and activities of antitumor agents” (J Med Chem, 1979)
Activity calls are given as the source filed them. No cut-off for these calls is given here.

Legend:
[1] = test system: L1210; test: Antitumor activity against mouse L1210 cells allografted in BDF1 mouse assessed as mean survival days at 8 mg/kg, ip qd for 3 days; format: functional; conditions: route intraperitoneal
[2] = test system: L1210; test: Antitumor activity against mouse L1210 cells allografted in BDF1 mouse assessed as increase in life span at 8 mg/kg, ip qd for 3 days relative to control; format: functional; conditions: route intraperitoneal
[3] = test system: L1210; test: Antitumor activity against mouse L1210 cells allografted in BDF1 mouse assessed as host survival at 8 mg/kg, ip qd for 3 days measured on day 60 relative to control; format: functional, organism-based; set-up: dose 8 mg/kg
[4] = test system: L1210; test: Antitumor activity against mouse L1210 cells allografted in BDF1 mouse assessed as increase in life span at 10 mg/kg, ip qd for 3 days relative to control; format: functional; conditions: route intraperitoneal
[5] = test system: L1210; test: Antitumor activity against mouse L1210 cells allografted in BDF1 mouse assessed as mean survival days at 10 mg/kg, ip qd for 3 days relative to control; format: functional; conditions: route intraperitoneal
[6] = test system: L1210; test: Antitumor activity against mouse L1210 cells allografted in BDF1 mouse assessed as mean survival days at 10 mg/kg, ip qd for 3 days; format: functional; conditions: route intraperitoneal
[7] = test system: L1210; test: Antitumor activity against mouse L1210 cells allografted in BDF1 mouse assessed as mean survival days at 8 mg/kg, ip qd for 3 days relative to control; format: functional; conditions: route intraperitoneal
[8] = test system: L1210; test: Antitumor activity against mouse L1210 cells allografted in BDF1 mouse assessed as mean survival days at 20 mg/kg, ip qd for 3 days relative to control; format: functional; conditions: route intraperitoneal
[9] = test system: Mus musculus; test: Toxicity in mouse L1210 cells allografted BDF1 mouse assessed as atrophic spleen at 40 mg/kg, ip qd for 3 days; format: organism-based; set-up: dose 40 mg/kg, route intraperitoneal; conditions: in vivo, 72 h
[10] = test system: L1210; test: Antitumor activity against mouse L1210 cells allografted in BDF1 mouse assessed as mean survival days at 20 mg/kg, ip qd for 3 days; format: functional; conditions: route intraperitoneal
[11] = test system: L1210; test: Antitumor activity against mouse L1210 cells allografted in BDF1 mouse assessed as increase in life span at 20 mg/kg, ip qd for 3 days relative to control; format: functional; conditions: route intraperitoneal
[12] = test system: Mus musculus; test: Toxicity in mouse L1210 cells allografted BDF1 mouse assessed as congestive liver at 40 mg/kg, ip qd for 3 days; format: organism-based; set-up: dose 40 mg/kg, route intraperitoneal; conditions: in vivo, 72 h
[13] = test system: Mus musculus; test: Toxicity in mouse L1210 cells allografted BDF1 mouse assessed as atrophic liver at 20 mg/kg, ip qd for 3 days; format: organism-based; set-up: dose 20 mg/kg, route intraperitoneal; conditions: in vivo, 72 h

Compound `O=NN(CCCl)C(=O)N[C@@H]1O[C@H](CO)[C@H](O)[C@H](O)[C@H]1O` has a Survival [1] of 47 days and an Activity [2] of 405.4%.
In the case of `O=NN(CCCl)C(=O)N[C@@H]1O[C@H](CO)[C@@H](O)[C@H](O)[C@@H]1O`, the Survival [1] is reported as 18.3 days, the Activity [3] is reported as “inactive” and the Activity [2] is reported as 103.3%.
For `O=NN(CCCl)C(=O)N[C@@H]1O[C@H](CO)[C@@H](O)[C@H](O)[C@H]1O`, the Survival [1] was 60 days, the Activity [3] was “Active” and the Activity [2] was 512.2%.
In the case of `O=NN(CCCl)C(=O)N[C@@H]1O[C@H](CO)[C@@H](O[C@@H]2O[C@H](CO)[C@H](O)[C@H](O)[C@H]2O)[C@H](O)[C@H]1O`, the Activity [4] is reported as 384.5%, the T/C [5] is reported as 9.7 and the Survival [6] is reported as 47 days.
With `O=NN(CCCl)C(=O)N[C@@H]1OC[C@@H](O)[C@H](O)[C@H]1O` the Survival [1] was 60 days, the Activity [3] was “Active” and the Activity [2] was 445.5%. For the same compound, the T/C [7] was 11.
`O=NN(CCCl)C(=O)N[C@@H]1O[C@H](CO)[C@@H](O[C@@H]2O[C@H](CO)[C@@H](O)[C@H](O)[C@H]2O)[C@H](O)[C@H]1O` was tested, and the Survival [1] was 42 days, the Activity [2] was 483.3% and the T/C [7] was 7.2.
`O=NN(CCCl)C(=O)N[C@@H]1O[C@H](CO)[C@@H](O[C@H]2O[C@H](CO)[C@@H](O)[C@H](O)[C@H]2O)[C@H](O)[C@H]1O` was tested, and the T/C [8] was 9, the Activity [9] was “Toxic” and the Survival [10] was 45.3 days. The Activity [11] was 403.3%, the Activity [12] was “Toxic” and the Activity [13] was “Toxic”.
